These results are taken from ChEMBL document CHEMBL2203242, “A regio- and stereoselective 1,3-dipolar cycloaddition for the synthesis of new-fangled dispiropyrrolothiazoles as antimycobacterial agents” (Bioorg Med Chem Lett, 2012).

Molecules are shown by their SMILES. Values after ≈ are worked out from the molar mass of the structure shown.

One assay deals with Vero. Briefly: Cytotoxicity against african green monkey Vero cells after 72 hrs by MTT assay. It is filed as cell-based. Conditions: Chlorocebus sabaeus.
In assay [1] the test system is Mycobacterium tuberculosis. As to the kind of experiment: Antimycobacterial activity against Mycobacterium tuberculosis H37Rv by agar dilution method. It is filed as functional. A general note: Agar dilution tests growth on a series of plates holding different concentrations.

One may read the IC50 as the concentration at which inhibition is half-maximal. In general, MIC90 refers to the lowest concentration that inhibits either 90% of growth or 90% of the strains tested, depending on the study. In turn, `COc1ccc([C@H]2[C@@H]3CSCN3[C@@]3(C(=O)N(N4CCOCC4)c4ccccc43)[C@@]23Cc2cc(OC)c(OC)cc2C3=O)cc1OC` displayed an IC50 in the assay on Vero greater than 62.5 mg/L. The molecule further came in with an MIC90 in assay [1] of 21.2 µM (≈ 13.6 µg/mL).
Consider `NNC(=O)c1ccncc1` [ISONIAZID], for which the IC50 in the assay on Vero was greater than 62.5 mg/L. This molecule also displayed an MIC90 in assay [1] of 0.73 µM (≈ 0.1 µg/mL).
With `COc1cc2c(cc1OC)C(=O)[C@]1(C2)[C@@H](c2ccccc2Cl)[C@@H]2CSCN2[C@@]12C(=O)N(N1CCOCC1)c1ccccc12`, in the assay on Vero, the IC50 is greater than 62.5 mg/L. Further, the MIC90 in assay [1] turned out to be 6.29 µM (≈ 3.89 µg/mL).
For `COc1cc2c(cc1OC)C(=O)[C@]1(C2)[C@@H](c2ccccc2)[C@@H]2CSCN2[C@@]12C(=O)N(N1CCOCC1)c1ccccc12` the same measures were greater than 62.5 mg/L and greater than 6.25 µM.
Regarding `COc1cc2c(cc1OC)C(=O)[C@]1(C2)[C@@H](c2ccc(F)cc2)[C@@H]2CSCN2[C@@]12C(=O)N(N1CCOCC1)c1ccccc12`, the IC50 with Vero was greater than 62.5 mg/L. In assay [1], the MIC90 worked out at 8.12 µM (≈ 4.89 µg/mL).
For `COc1cc2c(cc1OC)C(=O)[C@]1(C2)[C@@H](c2ccccc2)[C@@H]2CSCN2[C@@]12C(=O)Nc1ccc(OC(F)(F)F)cc12` the same measures were greater than 62.5 mg/L and greater than 6.25 µM.
For `COc1cc2c(cc1OC)C(=O)[C@]1(C2)[C@@H](c2ccc(F)cc2)[C@@H]2CSCN2[C@@]12C(=O)Nc1ccc(OC(F)(F)F)cc12` the same measures were greater than 62.5 mg/L and 0.72 µM (≈ 0.432 µg/mL).
Molecule `COc1cc2c(cc1OC)C(=O)[C@]1(C2)[C@@H](c2ccccc2Cl)[C@@H]2CSCN2[C@@]12C(=O)Nc1ccc(OC(F)(F)F)cc12` came in with an IC50 in the assay with Vero greater than 62.5 mg/L. In assay [1], this molecule came in with an MIC90 of 11.4 µM (≈ 7.04 µg/mL).
Turning to `COc1ccc([C@H]2[C@@H]3CSCN3[C@@]3(C(=O)Nc4ccc(OC(F)(F)F)cc43)[C@@]23Cc2cc(OC)c(OC)cc2C3=O)cc1OC`, in the assay on Vero, the IC50 was greater than 62.5 mg/L. The MIC90 in assay [1] was determined as 12.2 µM (≈ 7.85 µg/mL).
